Experimental data as given in ChEMBL document CHEMBL3507680, “University of Dundee, Gates Library screen for HepG2 cell viability”.

Experiment: Human HepG2 cell viability assay in 384 well format
Assay type: toxicity, cell-based
Parameters: dose 125 nL, time 70.5 hour; cytotoxicity at 70.5 h: concentration not given beside the values
Conditions: HepG2 cells, read-out: Inhibition

Row | SMILES | cytotoxicity at 70.5 h [%]
1 | CCn1nc(C)c2nnn(CC(=O)Nc3ccc(C)cc3)c(=O)c21 | -4.64
2 | Cc1ccc(CN2C[C@H](OCCN(C)C)[C@H]3OCCC[C@H]32)o1 | 3.05
3 | CCOCc1ncn2c1CN(S(=O)(=O)c1ccc(OC)cc1)CC2 | -9.1
4 | CCOCc1ccccc1NC(=O)NCC(c1cnn(C)c1)N(C)C (stereo not given) | -5.82
5 | O=C(c1ccco1)N1CCc2ncc(CN3CCOCC3)n2CC1 | 18.7
6 | CN(C)c1ncccc1CNC(=O)NCc1cccs1 | 1.41
7 | O=C(CCS(=O)(=O)C1CCCC1)NCCc1cccc(O)c1 | 19.9
8 | O=C(c1cn[nH]c1)N1CCC2(CCCN(Cc3ccc(F)c(F)c3)C2)C1 (stereo not given) | -8.34
9 | COC(=O)CC(c1cccnc1)c1oc(C)cc(=O)c1O (stereo not given) | -16.7
10 | CCOc1ccc(-c2c(C#N)c(N)nc3c2COCC3)cn1 | -15
11 | Cc1cc(NC(=O)NCC2CCOC2)no1 (stereo not given) | -11.6
12 | Cc1cc(C(=O)N2CCN(c3nc4c(C(C)C)cccc4s3)CC2)no1 | 3.44
13 | O=C1N[C@H]2OCCC[C@H]2[C@H](c2ccccc2)N1 | -12.3
14 | CC(C)c1cc(NC(=O)CN2CCCC2Cn2cccn2)on1 (stereo not given) | -1.57
15 | O=S(=O)(C1CC1)N1CCOC2(COCCN(c3ncccn3)C2)C1 (stereo not given) | -9.98
16 | CSc1nc2cc(C)n(CC(N)=O)c2c(=O)n1CC(C)C | 0.849
17 | COc1cc(CN2CCCC2)ccc1OC12CCCN(CC1)C2 (stereo not given) | -18.9
18 | CC(CN1CCC(CCO)CC1)n1cnc2ccccc21 (stereo not given) | -11.4
19 | O=C(c1cnccn1)N1C[C@@H]2C[C@@H](c3nc(C4CC4)cs3)O[C@@H]2C1 | -1.34
20 | C/C=C(\C)CN1CCC2(CCC(=O)N2OCc2ccccc2F)CC1 | -7.98
21 | COc1ccc2nc(C[C@@H]3C[C@@H](C(C)C)[C@H](CN)C=C3C)[nH]c2n1 | -4.84
22 | Cn1c(=O)c2c(n3ncnc13)NC(=O)CC2c1cccc(Br)c1 (stereo not given) | -9.38
23 | NCC1CCN(c2nc(C3CCCC3)nc3c2CCNCC3)C1 (stereo not given) | 21.5

Row | SMILES | cytotoxicity at 70.5 h [%]
24 | O=S(=O)(N1CCOCC1)N1CCOC(CCc2ccccc2)C1 (stereo not given) | -4.48
25 | COc1cccc2cc(CNCc3ccc(N4CCCC4)nc3)oc12 | 16
26 | Cc1ccc(C(=O)N2CCC3(CC2)CN(c2ccccn2)CCO3)cc1 | -8.31
27 | COc1ccccc1OC1CN(C(=O)C(c2ccc(F)cc2)N(C)C)C1 (stereo not given) | -1.1
28 | Cc1cc(COc2ccc(OC3CCCCNC3=O)cc2)on1 (stereo not given) | -3.96
29 | Cc1cc(CN(C)Cc2ccccc2N2CCCCC2)n[nH]1 | 1.54
30 | Cc1ncsc1CCn1ccnc1-c1cc2n(n1)CCCNC2 | 5.55
31 | CC(SCCC(=O)NC(N)=O)c1ccccc1F (stereo not given) | -7.35
32 | COCCNS(=O)(=O)c1ccc(Cl)c(C(=O)N(C)Cc2ccsc2)c1 | -5.32
33 | c1cc2nccc(CC3CCCN(Cc4c[nH]cn4)CC3)c2cn1 (stereo not given) | -0.459
34 | Cn1cnnc1C1CCCN(C(=O)NCc2ccc3c(c2)OCO3)C1 (stereo not given) | -0.469
35 | COC(=O)CCCN(C)C(=O)c1cc(F)cc2[nH]cnc12 | 23.5
36 | CCN(C)S(=O)(=O)NCC(C)(O)c1ccsc1 (stereo not given) | -0.398
37 | COC(=O)N1CC(C)=C(C)CN1C(=O)Nc1ccc(Cl)c(Cl)c1 | 4.31
38 | Cc1nc(CN(C)C2CCN(CC3CCC3)C2)no1 (stereo not given) | -4.98
39 | CNC(=O)[C@@H]1C[C@H]2CN(Cc3ccco3)C[C@H]2N1C | -15.3
40 | CCOc1ncnc2c1CCN(S(=O)(=O)C1CC1)CC2 | 14
41 | CSc1ccc(-c2nc(CN3CCC(C(N)=O)CC3)c(C)o2)cc1 | -6.77
42 | CC(C)Cc1noc(CN2CCCC2c2noc(C3CC3)n2)n1 (stereo not given) | -10.4
43 | O=C1CCCN1CCCN1CCCC1Cn1cccn1 (stereo not given) | 8.99
44 | O=C(c1cncc(F)c1)N1CCC(c2ncc[nH]2)CC1 | -7.04
45 | CCN(C)S(=O)(=O)N1CCC(C(O)c2ccc(Cl)cc2)CC1 (stereo not given) | -8.06
46 | COc1ccccc1N1CCC(CNCc2cccc(O)c2)C1 (stereo not given) | 8.44

Row | SMILES | cytotoxicity at 70.5 h [%]
47 | Cc1cc(CNC(=O)C2CCN(CC(N)=O)CC2)cc(C)n1 | -6.5
48 | NC(=O)Cc1ccc(NC(=O)C2CCOCC2)cc1 | -3.85
49 | O=C(CNc1ccc(F)cc1OCC(F)(F)F)NCc1ccco1 | -10.6
50 | CC(C)CNC(=O)c1[nH]nc(C2CC2)c1Br | -4.78
51 | Cc1cn[nH]c1C1CCCN1Cc1ccc(F)c(F)c1 (stereo not given) | -0.872
52 | CC(=O)NCc1ccc(C(=O)N2CCCC2c2cnn(C)c2)cc1 (stereo not given) | -6.89
53 | Cc1c[nH]nc1C1CCN(S(=O)(=O)N(C)C)C1 (stereo not given) | -8.85
54 | CCc1cnc(N2CCc3cc(C(=O)NC)c(N(C)C)nc3CC2)nc1 | -13.6
55 | CCOc1ccc(CC(CNC(=O)c2ccco2)C(N)=O)cc1 (stereo not given) | -6.1
56 | COc1ccc2[nH]c(=O)c(CN(C)C(C)c3ccccn3)cc2c1 (stereo not given) | -7.2
57 | CCN1CCN(C2CCN(C(C(N)=O)c3ccccc3)CC2)C1=O (stereo not given) | 1.23
58 | CN(C)C(=O)c1ccn(COc2ccccc2Cl)n1 | -2.41
59 | COc1ccccc1-c1cc(C(=O)Nc2nc[nH]n2)[nH]n1 | -12.9
60 | Cc1cc(CN(Cc2cccs2)CC2CCCO2)on1 (stereo not given) | 20.8
61 | O=C1CCC2(CCN(Cc3cc(F)ccc3Cl)CC2)CN1C1CCCC1 | 3.22
62 | CN1CCCN(S(=O)(=O)c2cn(C)cn2)c2cc(F)ccc21 | 4.76
63 | O=C1COC2(CCN(C(=O)[C@H]3CCCO3)CC2)CN1Cc1ccccn1 | 17.4
64 | CC(C)CCN1C[C@H]2C[C@H](C(=O)Nc3ccccc3)[C@@H](C1)O2 | -21.4
65 | Cn1cc(Cl)cc1C(=O)N1CCCN(Cc2nccn2C)CC1 | -1.83
66 | COc1ccc2c(c1)CC(NCc1cccc(CO)c1)CC2 (stereo not given) | -6.72
67 | CC(=O)c1c(C)nn(CC(=O)N2CCCC2c2ccc(C(N)=O)s2)c1C (stereo not given) | -2.76
68 | Cn1cc(C(=O)N2CCOc3cc(F)ccc32)ccc1=O | -7.98
69 | Cc1cccc(=O)n1CCCNc1ncnc2c1CCNCC2 | -6.31

Row | SMILES | cytotoxicity at 70.5 h [%]
70 | COc1ccc(C(=O)NCCc2nnc3ccccn23)c(OC)c1 | 8
71 | CCc1ncc(C(=O)NC(C)(C)CC)s1 | -1.24
72 | CC1CN(C)c2ccccc2CN1C(=O)c1cc(C#N)cn1C (stereo not given) | 14.8
73 | Cc1cc(C)n(C2CCCN(C(=O)COCC(F)(F)F)C2)n1 (stereo not given) | -22.5
74 | CN1CC(=O)N(c2cccnc2)CC12CCN(C(=O)C1CCCCC1)C2 (stereo not given) | 36.1
75 | Oc1ccc([C@H]2Oc3cc(O)cc(O)c3C[C@@H]2O)cc1 | -11.9
76 | Cc1cc(N2CCc3cnc(C)nc3C2)n2nc(C(F)(F)F)nc2n1 | -108
77 | COC(=O)CC(c1ccc(OC)c(O)c1)c1oc(C)cc(=O)c1O (stereo not given) | -2.8
78 | O=C(NS(=O)(=O)c1c(Cl)cccc1Cl)c1cccc2c1OCCO2 | -103
79 | CC(=O)N1CCC2(CC1)CN(C(C)C)c1ccc(F)cc12 | -1.77
80 | O=C(NCC1(N2CCOCC2)CCSC1)Nc1cn[nH]c1 (stereo not given) | -10.2
81 | CCOCC1CN(C(=O)COc2ccccc2C)Cc2ncn(C)c21 (stereo not given) | -4.87
82 | CCN1CCC2(CC1)OCCN2C(=O)c1ccc(OC)c(Cl)c1 | 3.75
83 | CC(C)(C)C(=O)N1CCN(C(=O)Nc2cnn(CC(F)F)c2)CC1 | -7.22
84 | COc1ncccc1CNC(=O)c1cccnc1O | -8.53
85 | CC(=O)c1sc2nc3c(c(C(F)(F)F)c2c1N)CN(C(C)=O)CC3 | 8.25
86 | CN(C)c1ccc(CC(=O)N[C@@H]2CCNC[C@H]2O)cc1 | -3.58
87 | O=C1NC(c2ccccc2)=N[C@@]12CC[C@@H]1CN(Cc3ccncc3)C[C@@H]12 | -13.9
88 | CCOc1ccc(SCCS(=O)(=O)CC)cc1 | -6.32
89 | CCn1nc(C)c2nc(C)nc(NC3CCCC3)c21 | -7.43
90 | COc1ccc(-c2nccn2CCN2CCCCC2)c(OC)c1OC | 4.66
91 | COC(=O)c1ccc(Cl)c(NS(=O)(=O)c2cnn(C)c2)c1 | 10.2
92 | Cc1nnc2n1CC(CNCc1nc(-c3cccs3)no1)CC2 (stereo not given) | 18.6

Row | SMILES | cytotoxicity at 70.5 h [%]
93 | CCCS(=O)(=O)N1CCC2(CC(C(=O)NCc3cccnc3)=NO2)C1 (stereo not given) | -10.3
94 | CC(=O)c1cn(CC(=O)N2CCC3(CC2)OCCO3)c2ccccc12 | -5.36
95 | CCCS(=O)(=O)CC(=O)Nc1ccsc1 | 7.39
96 | O=C(c1ccncc1F)N1Cc2nc(COCC3CC3)oc2C1 | -15.8
97 | O=C(NCCS(=O)(=O)N1CCN(c2ncccn2)CC1)C1CCCC1 | -5.6
98 | O=C(c1ncc[nH]1)N1CCC(n2cc(-c3ccccn3)nn2)CC1 | 0.522
99 | CSCC[C@H](NC(C)=O)c1nc(CC(C)C)n[nH]1 | 7.09
100 | N[C@@H]1c2ccccc2C2(CCN(c3ncccc3C(F)(F)F)CC2)[C@H]1O | 44.1
101 | O=C(CCNC(=O)c1ccoc1)Nc1ccccc1F | -8.3
102 | CC(C)OCc1noc(C2CCOC2)n1 (stereo not given) | -9.31
103 | CN(C)Cc1ccccc1NC(=O)c1ccc(C#N)cc1 | -7.54
104 | Cc1ccc(CN(CCCN(C)C)Cc2cnc(C)n2C)o1 | 6.53
105 | CCc1[nH]c2ccc(CNc3cncc(C(=O)N(C)C)n3)cc2c1C | -0.482
106 | Cc1cnn(CCNCC(=O)Nc2ccc(Br)cn2)c1 | -4.64
107 | O=C(CN1CCN(c2ncnc3cccc(F)c23)CC1)N1CCCC1 | -9.51
108 | Cc1nc(C)n(CC2CCCN(CCC(=O)N3CCCCC3)C2)n1 (stereo not given) | -1.55
109 | Cc1cc(CN2CCN(C(=O)NCc3cccs3)CC2)on1 | -14.6
110 | COCCN1Cc2ccccc2C2(CCN(C(=O)c3ccco3)CC2)C1 | 1.21
111 | COCC1CN(C(=O)Cc2ccccn2)Cc2c1cnn2CC1CC1 (stereo not given) | -13.1
112 | Cc1cc(C)n2c(CNCCNc3ccccc3)cnc2n1 | -1.23
113 | Cc1nn(C)c2c(NCCCn3cccn3)ncnc12 | -6.36
114 | O=C1CC2(CCN(c3nncs3)C2)CN1c1ccc2c(c1)OCCO2 (stereo not given) | -1.06
115 | Cn1cc(CN2CCC3(CC2)CCN(C(=O)c2cscn2)C3)cn1 | -3.37
